Assay results reported in the supplement of paper PMC11061612.

Assays:
Assay in all cases: combination Emax (second highest fraction inhibited in the dose matrix, 72 h); higher = more inhibition; extreme values may be limits of the assay
ACHN (Kidney Carcinoma) = test system: ACHN (Kidney Carcinoma)
Method in brief: (§1)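 Cell lines in DMEM/F12 or RPMI with 10% FBS were plated in 1536-well plates, held 24 hours at 37°C, 5% CO2, then given two-drug dose matrices for 72 hours (DMSO typically 0.2%). Viability was read by CellTiter-Glo 2.0 luminescence and scaled as inhibition from 0 (vehicle wells) to 1 (blank wells). Combination Emax is the second-highest inhibition in the matrix; Bliss excess is observed combination effect minus expected EA + EB − EA·EB, EA and EB being single-agent effects.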

[1] = test system: C-4-I (Cervical Carcinoma)
Method in brief: as §1

[2] = test system: Caov-4 (Ovarian Carcinoma)
Method in brief: as §1

[3] = test system: EFM-19 (Breast Carcinoma)
Method in brief: as §1

EW-24 (Ewing's Sarcoma) = test system: EW-24 (Ewing's Sarcoma)
Method in brief: as §1

[4] = test system: KMOE-2 (Acute Myeloid Leukemia)
Method in brief: as §1

[5] = test system: KYSE-450 (Esophageal Squamous Cell Carcinoma)
Method in brief: as §1

[6] = test system: MIA-PaCa-2 (Pancreatic Carcinoma)
Method in brief: as §1

NB69 (Neuroblastoma) = test system: NB69 (Neuroblastoma)
Method in brief: as §1

[7] = test system: NCI-H358 (Lung Adenocarcinoma)
Method in brief: as §1

[8] = test system: NCI-H727 (Other Solid Carcinomas)
Method in brief: as §1

[9] = test system: NUGC-3 (Gastric Carcinoma)
Method in brief: as §1

[10] = test system: OE19 (Esophageal Adenocarcinoma)
Method in brief: as §1

[11] = test system: OSC-20 (Oral Cavity Carcinoma)
Method in brief: as §1

PWR-1E (Non-Cancerous) = test system: PWR-1E (Non-Cancerous)
Method in brief: as §1

[12] = test system: RF-48 (B-Cell Non-Hodgkin's Lymphoma)
Method in brief: as §1

[13] = test system: SW13 (Other Solid Carcinomas)
Method in brief: as §1

TK10 (Kidney Carcinoma) = test system: TK10 (Kidney Carcinoma)
Method in brief: as §1

UACC-62 (Melanoma) = test system: UACC-62 (Melanoma)
Method in brief: as §1

[14] = test system: VA-ES-BJ (Other Solid Carcinomas)
Method in brief: as §1

SMILES | combination Emax (ACHN (Kidney Carcinoma)) | combination Emax [1] | combination Emax [2] | combination Emax [3] | combination Emax (EW-24 (Ewing's Sarcoma)) | combination Emax [4] | combination Emax [5] | combination Emax [6] | combination Emax (NB69 (Neuroblastoma)) | combination Emax [7] | combination Emax [8] | combination Emax [9] | combination Emax [10] | combination Emax [11] | combination Emax (PWR-1E (Non-Cancerous)) | combination Emax [12] | combination Emax [13] | combination Emax (TK10 (Kidney Carcinoma)) | combination Emax (UACC-62 (Melanoma)) | combination Emax [14]
C=CCn1c(=O)c2cnc(Nc3ccc(N4CCN(C)CC4)cc3)nc2n1-c1cccc(C(C)(C)O)n1 [AZD1775] + C[C@@H]1COCCN1C2=NC(=NC(=C2)C3(CC3)[S@](=N)(=O)C)C4=C5C=CNC5=NC=C4 [AZD6738] (first compound max 1 µM, partner max 10 µM) | 0.964 | 0.93 | 0.902 | 0.672 | 0.652 | 0.92 | 0.946 | 0.956 | 0.971 | 0.732 | 0.654 | 0.834 | 0.918 | 0.401 | 0.913 | 0.669 | 0.636 | 0.698 | 0.622 | 0.822
C=CCn1c(=O)c2cnc(Nc3ccc(N4CCN(C)CC4)cc3)nc2n1-c1cccc(C(C)(C)O)n1 [AZD1775] + O=C(c1cc(Cc2n[nH]c(=O)c3ccccc23)ccc1F)N1CCN(C(=O)C2CC2)CC1 [Olaparib] (first compound max 1 µM, partner max 10 µM) | 0.907 | 0.792 | 0.779 | 0.639 | 0.433 | 0.905 | 0.687 | 0.737 | 0.893 | 0.447 | 0.368 | 0.547 | 0.301 | 0.289 | 0.562 | 0.651 | 0.259 | 0.455 | 0.468 | 0.307
CCN(CCO)CCCOc1ccc2c(Nc3cc(CC(=O)Nc4cccc(F)c4)[nH]n3)ncnc2c1 [AZD2811] + C=CCn1c(=O)c2cnc(Nc3ccc(N4CCN(C)CC4)cc3)nc2n1-c1cccc(C(C)(C)O)n1 [AZD1775] (first compound max 1 µM, partner max 1 µM) | 0.999 | 0.771 | 0.821 | 0.467 | 0.279 | 0.89 | 0.61 | 0.727 | 0.885 | 0.416 | 0.311 | 0.539 | 0.651 | 0.369 | 0.87 | 0.522 | 0.463 | 0.33 | 0.391 | 0.356
CCN(CCO)CCCOc1ccc2c(Nc3cc(CC(=O)Nc4cccc(F)c4)[nH]n3)ncnc2c1 [AZD2811] + C[C@@H]1COCCN1C2=NC(=NC(=C2)C3(CC3)[S@](=N)(=O)C)C4=C5C=CNC5=NC=C4 [AZD6738] (first compound max 1 µM, 7x7, partner max 10 µM) | 0.905 | 0.841 | 0.784 | 0.355 | 0.567 | 0.615 | 0.63 | 0.644 | 0.815 | 0.55 | 0.559 | 0.697 | 0.864 | 0.449 | 0.908 | 0.462 | 0.537 | 0.602 | 0.519 | 0.696
CCN(CCO)CCCOc1ccc2c(Nc3cc(CC(=O)Nc4cccc(F)c4)[nH]n3)ncnc2c1 [AZD2811] + O=C(c1cc(Cc2n[nH]c(=O)c3ccccc23)ccc1F)N1CCN(C(=O)C2CC2)CC1 [Olaparib] (first compound max 1 µM, 7x7, partner max 10 µM) | 0.211 | 0.303 | 0.19 | 0.322 | 0.337 | 0.276 | 0.33 | 0.469 | 0.659 | 0.184 | 0.346 | 0.274 | 0.714 | 0.382 | 0.538 | 0.294 | 0.364 | 0.189 | 0.258 | 0.251
CN(CCO)CC[C@H](CSc1ccccc1)Nc1ccc(S(=O)(=O)NC(=O)c2ccc(N3CCC([C@@H](O)c4ccccc4-c4ccc(Cl)cc4)CC3)cc2)cc1S(=O)(=O)C(F)(F)F [AZD4320] + CN(C)CCCOc1ccc(-c2ccc3ncc4c(c3c2)n(C2CCOCC2)c(=O)n4C)cn1 [AZD0156] (first compound max 1 µM, 7x7, partner max 1 µM) | 0.125 | 0.145 | 0.276 | 0.797 | 0.876 | 0.847 | 0.0751 | 0.141 | 0.757 | 0.217 | 0.214 | 0.151 | 0.291 | 0.106 | 0.162 | 0.773 | 0.14 | 0.375 | 0.182 | 0.164
COc1nnc2ccc(N3CCC(c4ccc(OCCN5CCN(C)C(=O)[C@H]5C)cc4)CC3)nn12 [AZD5153] + C=CCn1c(=O)c2cnc(Nc3ccc(N4CCN(C)CC4)cc3)nc2n1-c1cccc(C(C)(C)O)n1 [AZD1775] (first compound max 1 µM, partner max 1 µM) | 0.835 | 0.838 | 0.864 | 0.573 | 0.609 | 0.971 | 0.519 | 0.882 | 0.99 | 0.63 | 0.431 | 0.715 | 0.539 | 0.284 | 0.886 | 0.558 | 0.561 | 0.604 | 0.577 | 0.724
COc1nnc2ccc(N3CCC(c4ccc(OCCN5CCN(C)C(=O)[C@H]5C)cc4)CC3)nn12 [AZD5153] + CC1(C)CCC(CN2CCN(c3ccc(C(=O)NS(=O)(=O)c4ccc(NCC5CCOCC5)c([N+](=O)[O-])c4)c(Oc4cnc5[nH]ccc5c4)c3)CC2)=C(c2ccc(Cl)cc2)C1 [Venetoclax] (first compound max 1 µM, 7x7, partner max 1 µM) | 0.535 | 0.514 | 0.543 | 0.359 | 0.498 | 0.847 | 0.332 | 0.878 | 0.952 | 0.345 | 0.34 | 0.464 | 0.494 | 0.129 | 0.61 | 0.53 | 0.384 | 0.594 | 0.605 | 0.5
COc1nnc2ccc(N3CCC(c4ccc(OCCN5CCN(C)C(=O)[C@H]5C)cc4)CC3)nn12 [AZD5153] + CCN(CCO)CCCOc1ccc2c(Nc3cc(CC(=O)Nc4cccc(F)c4)[nH]n3)ncnc2c1 [AZD2811] (first compound max 1 µM, 7x7, partner max 1 µM) | 0.562 | 0.565 | 0.597 | 0.366 | 0.616 | 0.901 | 0.358 | 0.88 | 0.952 | 0.352 | 0.404 | 0.579 | 0.693 | 0.261 | 0.782 | 0.418 | 0.455 | 0.564 | 0.478 | 0.579
COc1nnc2ccc(N3CCC(c4ccc(OCCN5CCN(C)C(=O)[C@H]5C)cc4)CC3)nn12 [AZD5153] + C[C@@H]1COCCN1C2=NC(=NC(=C2)C3(CC3)[S@](=N)(=O)C)C4=C5C=CNC5=NC=C4 [AZD6738] (first compound max 1 µM, 7x7, partner max 10 µM) | 0.928 | 0.876 | 0.894 | 0.549 | 0.834 | 0.988 | 0.481 | 0.919 | 0.991 | 0.698 | 0.59 | 0.775 | 0.616 | 0.309 | 0.997 | 0.629 | 0.718 | 0.695 | 0.664 | 0.799
COc1nnc2ccc(N3CCC(c4ccc(OCCN5CCN(C)C(=O)[C@H]5C)cc4)CC3)nn12 [AZD5153] + Cc1c2c(nn1C)CSCc1cc(n(C)n1)CSc1cc(c3ccccc3c1)OCCCc1c(C(=O)O)n(C)c3c-2c(Cl)ccc13 [AZD5991] (first compound max 1 µM, 7x7, partner max 1 µM) | 0.537 | 0.933 | 0.86 | 0.773 | 0.685 | 0.936 | 0.494 | 0.993 | 0.998 | 0.448 | 0.388 | 0.519 | 0.623 | 0.199 | 0.837 | 0.473 | 0.969 | 0.593 | 0.969 | 0.566
COc1nnc2ccc(N3CCC(c4ccc(OCCN5CCN(C)C(=O)[C@H]5C)cc4)CC3)nn12 [AZD5153] + Cn1cnc2c(F)c(Nc3ccc(Br)cc3Cl)c(C(=O)NOCCO)cc21 [Selumetinib] (first compound max 1 µM, 7x7, partner max 10 µM) | 0.634 | 0.883 | 0.706 | 0.28 | 0.444 | 1 | 0.429 | 0.859 | 1 | 0.589 | 0.678 | 0.649 | 0.631 | 0.23 | 0.777 | 0.362 | 0.593 | 0.604 | 0.947 | 0.481
Cc1c2c(nn1C)CSCc1cc(n(C)n1)CSc1cc(c3ccccc3c1)OCCCc1c(C(=O)O)n(C)c3c-2c(Cl)ccc13 [AZD5991] + C=CCn1c(=O)c2cnc(Nc3ccc(N4CCN(C)CC4)cc3)nc2n1-c1cccc(C(C)(C)O)n1 [AZD1775] (first compound max 1 µM, partner max 1 µM) | 0.938 | 1 | 0.928 | 0.778 | 0.402 | 0.992 | 0.763 | 0.711 | 0.944 | 0.649 | 0.358 | 0.78 | 0.722 | 0.346 | 0.55 | 0.605 | 0.881 | 0.498 | 0.901 | 0.6
